29 compounds from patent US7253171B2 (Laboratorios Almirall, S.A., priority 2001, dated 2007) can be followed below.

Structures are written as SMILES. pIC50: −log10 of the molar value. Bounds are passed on as bounds.

In this assay the target is T1, α4β1 integrin (Homo sapiens, UniProt P05556+P13612).
T1 construct: endogenous in cells; host or cells: U-937 cells
T1 sequence (P13612 34-1032): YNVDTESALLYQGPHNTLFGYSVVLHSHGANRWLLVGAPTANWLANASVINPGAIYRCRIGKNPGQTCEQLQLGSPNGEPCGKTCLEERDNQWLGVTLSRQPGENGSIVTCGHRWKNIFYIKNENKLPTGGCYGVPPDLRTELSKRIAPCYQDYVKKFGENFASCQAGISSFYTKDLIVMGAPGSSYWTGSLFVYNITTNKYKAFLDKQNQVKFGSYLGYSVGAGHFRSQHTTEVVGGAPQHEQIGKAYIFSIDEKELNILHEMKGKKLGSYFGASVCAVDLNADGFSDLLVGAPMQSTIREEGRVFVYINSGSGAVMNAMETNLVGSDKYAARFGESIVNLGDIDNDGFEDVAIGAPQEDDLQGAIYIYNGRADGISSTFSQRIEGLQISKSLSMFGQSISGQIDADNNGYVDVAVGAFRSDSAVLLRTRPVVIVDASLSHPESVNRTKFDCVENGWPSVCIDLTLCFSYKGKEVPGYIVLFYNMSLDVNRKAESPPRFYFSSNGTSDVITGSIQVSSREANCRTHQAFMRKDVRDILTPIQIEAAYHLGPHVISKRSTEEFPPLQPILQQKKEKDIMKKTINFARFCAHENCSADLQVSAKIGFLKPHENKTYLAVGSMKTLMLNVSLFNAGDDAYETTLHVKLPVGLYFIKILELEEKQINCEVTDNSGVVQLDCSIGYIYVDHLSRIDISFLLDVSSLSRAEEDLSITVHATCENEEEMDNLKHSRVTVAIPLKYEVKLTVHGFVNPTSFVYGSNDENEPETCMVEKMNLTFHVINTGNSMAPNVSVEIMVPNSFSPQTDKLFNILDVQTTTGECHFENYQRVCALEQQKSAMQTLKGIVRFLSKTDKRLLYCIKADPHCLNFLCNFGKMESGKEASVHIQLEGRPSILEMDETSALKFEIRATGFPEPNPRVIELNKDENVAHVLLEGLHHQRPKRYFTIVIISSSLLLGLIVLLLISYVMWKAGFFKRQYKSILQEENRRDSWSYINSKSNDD
T1 sequence (P05556 21-798): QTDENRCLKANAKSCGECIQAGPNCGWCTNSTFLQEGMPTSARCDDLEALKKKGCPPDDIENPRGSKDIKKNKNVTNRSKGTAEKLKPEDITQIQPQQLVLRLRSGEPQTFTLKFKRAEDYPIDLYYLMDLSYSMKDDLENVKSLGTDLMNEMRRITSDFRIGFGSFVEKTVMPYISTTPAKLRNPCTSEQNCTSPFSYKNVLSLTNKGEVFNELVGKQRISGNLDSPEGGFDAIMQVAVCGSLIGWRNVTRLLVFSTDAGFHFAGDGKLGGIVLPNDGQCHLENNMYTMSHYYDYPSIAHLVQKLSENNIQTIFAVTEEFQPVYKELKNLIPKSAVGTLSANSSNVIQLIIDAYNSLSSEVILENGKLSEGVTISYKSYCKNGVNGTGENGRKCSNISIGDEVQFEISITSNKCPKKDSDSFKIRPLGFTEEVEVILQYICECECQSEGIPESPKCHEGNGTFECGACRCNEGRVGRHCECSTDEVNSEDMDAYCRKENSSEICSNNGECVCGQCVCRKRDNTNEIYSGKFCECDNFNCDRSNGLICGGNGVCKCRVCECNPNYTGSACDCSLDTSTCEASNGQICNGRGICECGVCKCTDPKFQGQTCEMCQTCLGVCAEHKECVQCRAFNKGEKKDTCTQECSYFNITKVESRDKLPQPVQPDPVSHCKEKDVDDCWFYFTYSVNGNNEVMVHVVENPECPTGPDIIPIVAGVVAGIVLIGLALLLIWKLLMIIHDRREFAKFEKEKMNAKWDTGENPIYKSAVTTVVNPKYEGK
Description: U-937 cell adhesion to human VCAM-1 (α4β1 binding assay). The class given is cell-based. The note with it: U-937 cells, immobilized human VCAM-1; read-out: IC50 values in the α4β1 assays. How it is done:
U-937 Cell Adhesion to Human VCAM-1 (α4β1 Binding Assay)
Recombinant human soluble VCAM-1 (R&D Systems Ltd., UK) at 2 μg/ml in PBS was immobilized overnight onto microtiter plates. Unbound VCAM-1 was washed away and VCAM-1 coated plates were blocked with bovine serum albumin (BSA) 2,5% in PBS for 2 h at room temperature. U-937 cells were labelled with 5-carboxyfluorescein diacetate (5-CFDA) in order to detect bound cells to the wells. Test compounds were added to the wells followed by U-937 cells and the adhesion assay was performed for 1 h at 37° C. Following incubation, the wells were emptied and washed. Inhibition of binding was measured by the quantity of fluorescence bound to the plate for each of the various concentrations of test compound, as well as for controls containing no test compound, with a Cytofluor 2300 fluorescence measurement system.
Regarding `O=C(Nc1cc(Cl)ccc1S(=O)(=O)c1ccccc1)N[C@@H](Cc1ccc(NC(=O)c2c(Cl)cncc2Cl)cc1)C(=O)O` [Example 68, (S)-2-[3-(2-Benzenesulfonyl-5-chlorophenyl)ureido]-3-{4-[(3,5-dichloropyridine-4-carbonyl)amino]phenyl}propionic acid], the pIC50 – broadly, the IC50 on a negative log10 scale, so that one unit is a factor of ten – was over 7.00.
In the case of `O=C(Nc1ccccc1S(=O)(=O)c1ccccc1)N[C@@H](Cc1ccc(NC(=O)c2c(Cl)cncc2Cl)cc1)C(=O)O` [Example 70, (S)-2-[3-(2-Benzenesulfonylphenyl)ureido]-3-{4-[(3,5-dichloropyridine-4-carbonyl)amino]phenyl}propionic acid], the negative-log IC50 (pIC50) is over 7.00.
In the case of `O=C(Nc1cccc(C(=O)c2ccccc2)c1)N[C@@H](Cc1ccc(NC(=O)c2c(Cl)cncc2Cl)cc1)C(=O)O` [Example 77, (S)-3(4-{[1-(3,5-Dichloropyridin-4-yl)methanoyl]amino}phenyl)-2-{3-[3-(1-phenylmethanoyl)phenyl]ureido}propionic acid] it was over 7.00.
With `CN(C(=O)N[C@@H](Cc1ccc(NC(=O)c2c(Cl)cncc2Cl)cc1)C(=O)O)c1ccccc1Cc1ccccc1` [Example 79, (S)-2-[3-(2-Benzylphenyl)-3-methylureido]-3-(4-{[1-(3,5-dichloropyridin-4-yl)methandyl]amino}-phenyl)propionic acid] the figure was over 7.00; with `CN(C(=O)c1ccccc1NC(=O)N[C@@H](Cc1ccc(NC(=O)c2c(Cl)cncc2Cl)cc1)C(=O)O)C1CCCCC1` [Example 80], over 7.00.
Take `CN(C(=O)N[C@@H](Cc1ccc(NC(=O)c2c(Cl)cncc2Cl)cc1)C(=O)O)c1ccccc1C(=O)N(C)C1CCCCC1` [Example 81]: the pIC50 is over 7.00.
Turning to `CCCCCN(C(=O)N[C@@H](Cc1ccc(NC(=O)c2c(Cl)cncc2Cl)cc1)C(=O)O)c1ccccc1C(=O)N(C)C1CCCCC1` [Example 84], the pIC50 is over 7.00.
With `CN(C(=O)c1ccccc1N(Cc1ccccc1)C(=O)N[C@@H](Cc1ccc(NC(=O)c2c(Cl)cncc2Cl)cc1)C(=O)O)C1CCCCC1` [Example 85] the figure was over 7.00; with `CN(C(=O)c1ccccc1N(CC1CCCCC1)C(=O)N[C@@H](Cc1ccc(NC(=O)c2c(Cl)cncc2Cl)cc1)C(=O)O)C1CCCCC1` [Example 86], over 7.00; with `CN(C(=O)N[C@@H](Cc1ccc(NC(=O)c2c(Cl)cncc2Cl)cc1)C(=O)O)c1ccccc1S(=O)(=O)N1CCCCC1` [Example 88, (S)-3-(4-{[1-(3,5-Dichloropyridin-4-yl)methyanoyl]amino}phenyl)-2-{3-methyl-3-[2-(piperidine-1-sulfonyl)phenyl]ureido}propionic acid.], over 7.00.
As for `O=C(Nc1ccccc1S(=O)(=O)C1CCCC1)N[C@@H](Cc1ccc(NC(=O)c2c(Cl)cncc2Cl)cc1)C(=O)O` [Example 92, (S)-2-[3-(2-Cyclopentanesulfonylphenyl)ureido]-3-(4-{[1-(3,5-dichloropyridin-4-yl)methanoyl]amino}phenyl)propionic acid], the negative-log IC50 (pIC50) was over 7.00.
For `CC(C)(C)S(=O)(=O)c1ccccc1NC(=O)N[C@@H](Cc1ccc(NC(=O)c2c(Cl)cncc2Cl)cc1)C(=O)O` [Example 94, (S)-3-(4-{[1-(3,5-Dichloropyridin-4-yl)methanoyl]amino}phenyl)-2-{3-[2-(2-methylpropane-2-sulfonyl)phenyl]ureido}propionic acid], the negative-log IC50 (pIC50) was over 7.00.
In the case of `Cc1csc2nc(Sc3ccccc3NC(=O)N[C@@H](Cc3ccc(NC(=O)c4c(Cl)cncc4Cl)cc3)C(=O)O)cnc12` [Example 96, (S)-3-(4-{[1-(3,5-Dichloropyridin-4-yl)methanoyl]amino}phenyl)-2-(3-[2-(7-methylthieno[2,3-b]pyrazin-3-ylsulfanyl)phenyl]ureido}propionic acid] it was over 7.00; in that of `O=C(Nc1ccccc1Sc1c(Cl)cncc1Cl)N[C@@H](Cc1ccc(NC(=O)c2c(Cl)cncc2Cl)cc1)C(=O)O` [Example 98, (S)-3-(4-{[1-(3,5-Dichloropyridin-4-yl)methanoyl]amino}phenyl)-2-{3-[2-(3,5-dichloropyridin-4-ylsulfanyl)phenyl]ureido}propionic acid], over 7.00.
Consider `Cc1ccc(C(=O)Nc2ccc(C[C@H](NC(=O)Nc3ccccc3S(=O)(=O)c3ccccc3)C(=O)O)cc2)c(Cl)n1` [Example 103, (S)-2-[3-(2-Benzenesulfonylphenyl)ureido]-3-(4-{[1-(2-chloro-6-methylpyridin-3-yl)methanoyl]amino}phenyl)propionic acid], for which the negative logarithm of the IC50 (pIC50) was over 7.00.
For `COc1cncc(OC)c1C(=O)Nc1ccc(C[C@H](NC(=O)Nc2ccccc2S(=O)(=O)c2ccccc2)C(=O)O)cc1` [Example 105, (S)-2-[3-(2-Benzenesulfonylphenyl)ureido]-3-(4-{[1-(3,5-dimethoxypyridin-4-yl)-methanoyl]amino}phenyl)propionic acid], the negative logarithm of the IC50 (pIC50) was over 7.00.
As to `O=C(Nc1ccccc1S(=O)(=O)c1ccccc1)N[C@@H](Cc1ccc(NC(=O)c2c(Br)cncc2Br)cc1)C(=O)O` [Example 106, (S)-2-[3-(2-Benzenesulfonylphenyl)ureido]-3-(4-{[1-(3,5-dibromopyridin-4-yl)-methanoyl]amino}phenyl)propionic acid], the negative logarithm of the IC50 (pIC50) was over 7.00.
For `O=C(Nc1ccccc1S(=O)(=O)c1ccccc1)N[C@@H](Cc1ccc(NCc2c(Cl)cncc2Cl)cc1)C(=O)O` [Example 110, (S)-2-[3-(2-Benzenesulfonylphenyl)ureido]-3-{4-[(3,5-dichloropyridin-4-ylmethyl)amino]phenyl}propionic acid], the negative-log IC50 (pIC50) is over 7.00.
Turning to `O=C(Nc1ccccc1S(=O)(=O)c1ccccc1)N[C@@H](Cc1ccc(OC(=O)c2c(Cl)cncc2Cl)cc1)C(=O)O` [Example 116, 3,5-Dichloroisonicotinic acid 4-{(S)-2-[3-(2-benzenesulfonylphenyl)ureido]-2-carboxyethyl}phenyl ester], the negative-log IC50 (pIC50) was over 7.00.
As for `O=C(Nc1ccccc1S(=O)(=O)c1ccccc1)N[C@@H](Cc1ccc(Nc2nccc3cnccc23)cc1)C(=O)O` [Example 122, (S)-2-[3-(2-Benzenesulfonylphenyl)ureido]-3-[4-([2,6]naphthyridin-1-ylamino)phenyl]propionic acid], the negative-log IC50 (pIC50) is over 7.00.
With `O=C(Nc1ccccc1S(=O)(=O)N1CCCCC1)N[C@@H](Cc1ccc(Nc2nccc3cnccc23)cc1)C(=O)O` [Example 124, (S)-3-[4-([2,6]Naphthyridin-1-ylamino)phenyl]-2-{3-[2-(piperidine-1-sulfonyl)phenyl]ureido}propionic acid] the figure was over 7.00.
With `O=C(Nc1ccccc1S(=O)(=O)c1ccccc1)N[C@@H](Cc1ccc(Nc2nccc3ccncc23)cc1)C(=O)O` [Example 128, (S)-2-[3-(2-Benzenesulfonylphenyl)ureido]-3-[4-([2,7]naphthyridin-1-ylamino)phenyl]propionic acid], the pIC50 was over 7.00.
Consider `O=C(Nc1ccccc1S(=O)(=O)N1CCCCC1)N[C@@H](Cc1ccc(Nc2nccc3ccncc23)cc1)C(=O)O` [Example 130, (S)-3-[4-([2,7]Naphthyridin-1ylamino)-phenyl]-2-{3-[2-(piperidine-1-sulfonyl)phenyl]ureido}propionic acid], for which the pIC50 was over 7.00.
Turning to `O=C(Nc1ccccc1S(=O)(=O)c1ccccc1)N[C@@H](Cc1ccc(Oc2nccc3cnccc23)cc1)C(=O)O` [Example 134, (S)-2-[3-(2-Benzenesulfonylphenyl)ureido]-3-[4-([2,6]naphthyridin-1-yloxy)phenyl]propionic acid], the negative logarithm of the IC50 (pIC50) was over 7.00.
For `O=C(Nc1ccccc1S(=O)(=O)N1CCCCC1)N[C@@H](Cc1ccc(Oc2nccc3cnccc23)cc1)C(=O)O` [Example 136, (S)-3-[4-([2,6]Naphthyridin-1-yloxy)phenyl]-2-{3-[2-(piperidine-1-sulfonyl)phenyl]ureido}propionic acid], the pIC50 was over 7.00.
As to `O=C(Nc1ccccc1S(=O)(=O)N1CCCCC1)N[C@@H](Cc1ccc(Oc2nccc3ccncc23)cc1)C(=O)O` [Example 140, (S)-3-[4-([2,7]Naphthyridin-1-yloxy)phenyl]-2-{3-[2-(piperidine-1-sulfonyl)phenyl]ureido}propionic acid], the pIC50 is over 7.00.
Take `CN(C(=S)N[C@@H](Cc1ccc(NC(=O)c2c(Cl)cncc2Cl)cc1)C(=O)O)c1ccccc1Cc1ccccc1` [Example 144, (S)-2-[3-(2-Benzylphenyl)-3-methylthioureido]-3-(4-{[1-(3,5-dichloropyridin-4-yl)methanoyl]amino}phenyl)propionic acid]: the negative logarithm of the IC50 (pIC50) was over 7.00.
Consider `CN(C(=S)N[C@@H](Cc1ccc(NC(=O)c2c(Cl)cncc2Cl)cc1)C(=O)O)c1ccccc1C(=O)N(C)C1CCCCC1` [Example 146], for which the negative-log IC50 (pIC50) was over 7.00.
On to `O=C(Nc1ccc(C[C@H](NC(=S)Nc2ccccc2S(=O)(=O)N2CCCCC2)C(=O)O)cc1)c1c(Cl)cncc1Cl` [Example 147], for which the pIC50 was over 7.00.
